Test results taken from patent US6362179B1, “Salts of an optically-active sulfoxide derivative” (Sankyo Company, Limited, priority 1997, dated 2002).

Tests used:
[1] = biological target: NK1 receptors (Homo sapiens, UniProt P25103); assay: Pharmacological test of antagonistic activity against NK1 receptors in vitro; conditions: test made by the present inventors
[2] = biological target: T1, NK1 receptor (Cavia porcellus, UniProt P30547); assay: Inhibitory effect against increased vascular permeability induced by substance P; assay type: in vivo, guinea pig; conditions: male Hartley guinea pigs; for ID50 (mg/kg, p.o.): oral administration 1 hour before SP (1 μg/kg i.v.), Evans blue leakage into primary bronchus; for Inhibitory rate (%) on oral administration at 3.3 mg/kg: 3.3 mg/kg p.o. 1 hour before SP, pigment leakage
T1 construct: increased vascular permeability induced by substance P (SP), an NK1 receptor agonist; from tissue; host or cells: living male Hartley guinea pig; pigment leakage at the primary bronchus
T1 sequence (P30547 whole entry): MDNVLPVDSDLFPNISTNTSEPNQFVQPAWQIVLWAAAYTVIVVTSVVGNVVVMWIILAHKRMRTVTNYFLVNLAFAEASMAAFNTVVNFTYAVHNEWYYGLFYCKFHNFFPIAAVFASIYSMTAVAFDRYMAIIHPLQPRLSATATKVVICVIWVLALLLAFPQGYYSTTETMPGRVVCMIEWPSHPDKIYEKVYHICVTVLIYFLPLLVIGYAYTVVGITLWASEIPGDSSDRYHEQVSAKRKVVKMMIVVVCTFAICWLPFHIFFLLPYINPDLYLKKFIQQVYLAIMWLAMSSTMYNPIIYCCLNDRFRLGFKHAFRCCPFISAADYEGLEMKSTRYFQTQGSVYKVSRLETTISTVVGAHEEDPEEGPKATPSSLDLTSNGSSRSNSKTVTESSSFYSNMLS
Method: Inhibitory Effect Against Increased Vascular Permeability
The inhibitory effect on increased vascular permeability induced by substance P (SP), an NK1 receptor agonist, was assessed based on the amount of pigment leakage as an index using guinea pigs (body weight: approx. 400 g, male Hartley guinea pigs).
A pigment (Evans blue: 40 mg/kg) was administered to the femoral vein of a guinea pig anesthetized with pentobarbital (30 mg/kg, i.p.) and immediately after that, SP (1 μg/kg) was intravenously injected to induce accentuation of vascular permeability. Fifteen minutes after the injection, the guinea pig was sacrificed under anesthesia with chloroform and the amount of the pigment leaked into the primary bronchus site was measured in accordance with Harada's method (J. Pharm. Pharmacol. 23, 218(1971)). A test substance was suspended in a 0.5% tragacanth suspension and orally administered to a guinea pig 1 hour before induction by SP. Its inhibitory action was determined by the ratio of the pigment leaked from the test-substance-administered group to that from the non-administered group. In Table 1, 50% inhibitory dose (ID50) and inhibitory rate in the case of oral administration at 3.3 mg/kg are shown.

[3] = biological target: T2, NK2 receptor (Cavia porcellus, UniProt Q64077); assay: Inhibitory effect against bronchoconstriction induced with [Nle10]-NKA[4-10]; assay type: in vivo, guinea pig; conditions: for ID50 (mg/kg, p.o.): male Hartley guinea pigs, oral administration one hour before [Nle10]-NKA[4-10] (4 μg/kg i.v.), AUC of airway pressure
T2 construct: bronchoconstriction induced with [Nle^10]-NKA[4-10], an NK2 receptor agonist; from tissue; host or cells: living male Hartley guinea pig; airway pressure (Konzett-Roessler)
T2 sequence (Q64077 1-402): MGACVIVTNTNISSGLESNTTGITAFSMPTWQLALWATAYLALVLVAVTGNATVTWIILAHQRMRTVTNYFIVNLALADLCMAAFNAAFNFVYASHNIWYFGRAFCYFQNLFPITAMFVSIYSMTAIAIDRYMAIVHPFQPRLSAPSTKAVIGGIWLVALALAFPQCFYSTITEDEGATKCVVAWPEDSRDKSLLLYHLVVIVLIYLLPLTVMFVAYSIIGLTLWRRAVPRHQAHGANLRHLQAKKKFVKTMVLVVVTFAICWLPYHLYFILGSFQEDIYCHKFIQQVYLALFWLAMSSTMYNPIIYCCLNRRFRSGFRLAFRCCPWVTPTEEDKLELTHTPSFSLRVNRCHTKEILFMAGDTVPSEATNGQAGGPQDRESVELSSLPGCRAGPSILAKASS

NK1 receptors, sequence (P25103 whole entry): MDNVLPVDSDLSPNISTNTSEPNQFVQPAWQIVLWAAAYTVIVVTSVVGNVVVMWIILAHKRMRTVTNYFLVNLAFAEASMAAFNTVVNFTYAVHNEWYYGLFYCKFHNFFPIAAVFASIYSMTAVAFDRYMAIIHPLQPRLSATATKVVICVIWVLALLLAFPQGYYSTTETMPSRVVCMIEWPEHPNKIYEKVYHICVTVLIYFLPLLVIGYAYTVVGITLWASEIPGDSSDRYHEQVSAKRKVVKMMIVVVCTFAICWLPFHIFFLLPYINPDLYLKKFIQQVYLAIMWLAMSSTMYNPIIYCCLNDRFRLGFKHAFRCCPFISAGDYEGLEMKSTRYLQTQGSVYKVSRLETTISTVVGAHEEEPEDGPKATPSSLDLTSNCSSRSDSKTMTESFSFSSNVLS

Row | Structure (SMILES) | antagonistic activity against NK1 receptors in vitro [1] | ID50 (mg/kg, p.o.) [2] | ED50 ([3]; guinea pig, guinea pigs, intravenous injection of test substance, read-out: ID50 (the source's name)) | Inhibitory rate (%) on oral administration at 3.3 mg/kg [2] | ID50 (mg/kg, p.o.) [3]
1 | CN(C[C@@H](CCN1CCC2(CCc3ccccc32)CC1)c1ccc(Cl)c(Cl)c1)C(=O)c1ccccc1 [B] | markedly weak |  |  |  | 
2 | Cc1cc(C)cc(C(=O)N(C)C[C@@H](CCN2CCC3(CC2)CN(S(C)(=O)=O)c2ccccc23)c2ccc(Cl)c(Cl)c2)c1 [Compound A, reference compound] |  | greater than 10 mg/kg | > 10 mg/kg |  | 
3 | COc1cc(C(=O)N2CCO[C@](CCN3CCC4(CC3)c3ccccc3C[S@@+]4[O-])(c3ccc(Cl)c(Cl)c3)C2)cc(OC)c1OC.Cl [Compound of Ex. 1, 1-{2-[(2R)-(3,4-Dichlorophenyl)-4-(3,4,5-trimethoxybenzoyl)morpholin-2-yl]ethyl}spiro[benzo(c)thiophene-1(3H),4′-piperidin]-(2S)-oxide hydrochloride] |  | 5.1 mg/kg |  | 48.0% | 0.51 mg/kg
4 | COc1cc(C(=O)N2CCOC(CCN3CCC4(CC3)c3ccccc3C[S+]4[O-])(c3ccc(Cl)c(Cl)c3)C2)cc(OC)c1OC.O=C(O)/C=C/C(=O)O [Compound of Ex. 2, 1-{2-[(2R)-(3,4-Dichlorophenyl)-4-(3,4,5-trimethoxybenzoyl)morpholin-2-yl]ethyl}spiro[benzo(c)thiophene-1(3H),4′-piperidin]-(2S)-oxide fumarate] |  |  |  | 46.8% | 0.54 mg/kg
